Experimental data published in patent US20140294729A1, “METHODS FOR IDENTIFICATION AND USE OF AGENTS TARGETING CANCER STEM CELLS” (Whitehead Institute for Biomedical Research, priority 2008, published 2014).
“Also recorded” adds a separate entry of the source.

Legend:
HMLER cells [1] = assay: Mammosphere formation assay of treated HMLER cells; type: cell-based, human
Procedure: (§1) FIGS. 6A and 6B depict effects of salinomycin on the CSC population in HMLER cell line. (FIG. 6A) HMLER cells were treated with vehicle control (dmso), salinomycin or paclitaxel at the indicated concentrations for 15 days. FACS analysis were performed at the end of treatment to gauge the CD44+/CD24− CSC population (right panels). Note that salinomycin decreases the CD44+/CD24− population from a basal of 4.9% to 0.2%. Treated cultures were also subjected to the mammosphere formation assay (left panels). Number of mammopsheres formed per 1000 cells from each culture are indicated below the representative photographs of assay wells. (FIG. 6B) Growth rates of HMLER cultures after treatment with vehicle control (dmso), salinomycin or paclitaxel at the indicated concentrations in (A) for 15 days.
We examined the ability of breast cancer cells to form mammospheres following treatment with salinomycin.
(§2) Mammosphere culture was performed as described (Dontu et al., 2003), except that the culture medium contained 0.9% methyl cellulose (Stem cell technologies) to prevent cell aggregation. […] were plated per well in 96-well plates. The mammospheres were cultured for 7-10 days and then photographed and counted.

HMLER cells [2] = assay: FACS of the CD44+/CD24- CSC population in treated HMLER cells; type: cell-based, human
Procedure: as §1
We then turned to the critical question of whether the compounds had the general ability to inhibit CSCs in breast cancer cell lines. […] We next compared the effects of salinomycin, control vehicle DMSO and paclitaxel on HMLER cells. […] The CD44+/CD24− fraction was thus 360-fold lower following treatment with salinomycin than with paclitaxel (FIG. 6A). Proliferation of the bulk population was not inhibited following treatment with salinomycin relative to either vehicle- or paclitaxel-treatment (FIG. 6B).
(§3) The anti-CD44 (clone G44-26) antibody conjugated to APC and the anti-CD24 antibody (clone ML5) conjugated to PE used for FACS analysis were obtained from BD Bioscience and used according to the manufacturer's instructions. Propidium Iodide (5 ug/ml) was included in the staining protocol to distinguish live cells.

MCF7Ras cells = assay: Mammosphere-forming potential of treated MCF7Ras cells; type: cell-based; settings: FIG. 14
Procedure: (§4) FIG. 14A depicts the mammosphere forming potential of parental HMLER cells treated with either DMSO, paclitaxel (taxol) or salinomycin at the specified doses. FIG. 14B depicts MCF7Ras or 4T1 cells that were treated with DMSO, paclitaxel or salinomycin. Mammosphere-forming potential is shown below.
as §2
(§5) The mammosphere forming potential of parental HMLER cells treated with either DMSO, paclitaxel (taxol) or salinomycin was also examined at various doses. Salinomycin, but not paclitaxel inhibited mammosphere formation in MCF7Ras or 4T1 cells. (FIG. 14.) The effects of salinomycin, paclitaxel or vehicle control treatments on in vivo tumor formation by SUM159 breast cancer cells injected in mice was determined. […] (FIG. 15A.) The mammosphere-forming potential of cancer cells obtained from SUM159 tumors from salinomycin, paclitaxel or DMSO-treated mice was also determined (FIG. 15B.)

[3] = test system: SUM159 breast cancer cells; assay: In vivo tumor formation by SUM159 breast cancer cells in treated mice; settings: FIG. 15A
Procedure: FIG. 15A depicts in vivo tumor formation by SUM159 breast cancer cells in mice that were treated with salinomycin, paclitaxel or vehicle. […] FIG. 15B depicts the mammosphere-forming potential of cancer cells obtained from SUM159 tumors from salinomycin, paclitaxel or DMSO-treated mice.
as §5

4T1 cells = assay: Mammosphere-forming potential of treated 4T1 cells; type: cell-based; settings: FIG. 14
Procedure: as §4, §2, §5

[4] = test system: SUM159 breast cancer cells; assay: Mammosphere formation assay with SUM159 breast cancer cells; type: cell-based
Procedure: (§6) To directly evaluate the effect of salinomycin on cancer stem cell populations, we functionally assayed for cancer stem cell activity in salinomycin, taxol, or DMSO-treated cultures.
as §2

SUM159 cells = assay: FACS of the CD44hi/CD24lo fraction in treated SUM159 cells; type: cell-based; settings: for percent of cells in the CD44hi/CD2410 fraction relative to DMSO controls: FIGS. 5C and 5D
Excerpt: (§7) FIG. 5A depicts flow cytometry analysis of Sum159, MDA-MB-231 and T47D cell lines with respect to cell surface expression of CD44 and CD24. Note that while the majority of cells in Sum159 and MDA-MB-231 line contain large amounts of CSCs, T47D cells have very few such cells. FIG. 5B depicts dose response curves of Sum159, MDA-MB-231 and T47D cell treated with Salinomycin.
To further characterize the effects of compound treatment on cancer cells, we conducted FACS analyses on SUM159 cells treated with salinomycin, abamectin, taxol, or DMSO.
as §3

[5] = test system: CSCs in breast cancer cell populations; assay: In vivo tumor-seeding ability after in vitro drug treatment (serial dilution, subcutaneous injection); set-up: species or system NOD/SCID mice
Procedure: Finally, we also directly assessed the functional presence of CSCs by assaying in vivo tumor-seeding ability following drug treatment. Cells were treated in vitro for 5 days and then injected subcutaneously into NOD/SCID mice. […] The proportion of functional CSCs was thus reduced by 1000-fold following salinomycin treatment compared to paclitaxel treatment.
as §6
We have established several downstream assays for the follow-up evaluation of screen hits with respect to their effects on cancer stem cells: (1) Treat cells in culture for a period of time with screen hits (e.g., compounds, compositions, antibodies, shRNAs, etc.), including the necessary controls, and then allow the cells to recover for a period (e.g., up to 12 hours, up to 24 hours, up to 48 hours, up to 72 hours etc.), and then perform FACS with markers that identify populations enriched for cancer stem cells (for example, but not limited to, CD44+/CD24− in the case of breast cancer). (2) Treat cells in culture for a period of time with screen hits, allow them to recover for a prescribed period of time, and then perform colony formation assays in suspension in the absence of chemical compound (for breast cancer cells, these assays are referred to as mammosphere formation assays). (3) Treat cells in culture for a period of time with screen hits, allow them to recover for a prescribed period of time, and then inject cells at various cell numbers subcutaneously into immunocompromised animals and evaluate the frequency of tumor formation. The number of injected cells could include 10̂6, 10̂5, 10̂4, 10̂3, and 10̂2 cells. Using follow-up assays, such as those disclosed herein, one can evaluate whether or not a screen hit (or any drug with potential CSC-directed activity) is a bonafide inhibitor of cancer stem cells.

[6] = test system: SUM159, MDA-MB-231 and T47D cells; assay: Dose response of breast cancer cell lines differing in CSC marker expression; type: cell-based; settings: range of doses, FIG. 5B
Excerpt: as §7
Cancer stem cells are resistant to a wide spectrum of treatments and chemotherapeutics. Since the compounds identified using the described screening approach preferentially target epithelial cells having undergone EMT, we wished to determine whether such compounds might also serve to target cancer stem cells.

SMILES	mammosphere size (HMLER cells [1])	effect on the number of mammospheres (HMLER cells [1]; FIG. 6A)	increase of the CSC-fraction (CD44+/CD24−) (HMLER cells [2]; FIG. 6A) [fold]	mammosphere formation (MCF7Ras cells)	tumor volume / tumor growth compared with vehicle control [3]	mammosphere formation (4T1 cells)	number of cells capable of forming colonies in suspension culture relative to DMSO [4]	percent of cells in the CD44hi/CD2410 fraction relative to DMSO controls (SUM159 cells)	increase in tumor-seeding ability relative to controls ([5]; cells treated in vitro for 5 days, data not shown) [fold]	CSC functional activity / CSC number in tumor-formation dilution series relative to DMSO-treated controls ([5]; mouse, in vivo)	CSC functional activity / CSC number in tumor-formation dilution series relative to DMSO-treated controls ([5]; mouse, in vivo, listed as taxol)	decrease in the number of mammospheres relative to controls (HMLER cells [1]; FIG. 6A) [fold]	CD44+/CD24− population after treatment (basal 4.9%) (HMLER cells [2]; 15 days) [%]	CD44+/CD24− fraction lower following salinomycin than with paclitaxel (HMLER cells [2]; FIG. 6A) [fold]	decrease of the proportion of CD44+/CD24− cells relative to vehicle-treated controls (HMLER cells [2]; FIG. 6A) [fold]	increase in the CSC-depleted fraction (SUM159 cells) [fold]	percent of cells in the CD44hi/CD2410 fraction relative to DMSO controls (SUM159 cells; listed as Salinomycin)	decrease in tumor-seeding ability (CSCs) relative to vehicle/control treatment ([5]; cells treated in vitro for 5 days, injected subcutaneously, data not shown) [fold]	reduction of functional CSCs following salinomycin compared to paclitaxel treatment ([5]; mouse, in vivo) [fold]	sensitivity of CSC-enriched SUM159 and MDA-MB-231 relative to CSC-poor T47D cells [6]
CC(=O)O[C@H]1C(=O)[C@@]2(C)[C@H]([C@H](OC(=O)c3ccccc3)[C@]3(O)C[C@H](OC(=O)[C@H](O)[C@@H](NC(=O)c4ccccc4)c4ccccc4)C(C)=C1C3(C)C)[C@]1(OC(C)=O)CO[C@@H]1C[C@@H]2O [paclitaxel]	significant increase	neither paclitaxel nor vehicle treatment affected the number of mammospheres	18	not	reduced tumor volume	not	increase	did not significantly affect	~10	induced an increase in CSCs	opposite effect	–	–	–	–	–	–	–	–	–
CC[C@@H](C(=O)[C@@H](C)[C@@H](O)[C@H](C)[C@@H]1O[C@@H]([C@@H](CC)C(=O)O)CC[C@@H]1C)[C@H]1O[C@]2(C=C[C@@H](O)[C@]3(CC[C@@](C)([C@H]4CC[C@](O)(CC)[C@H](C)O4)O3)O2)[C@H](C)C[C@@H]1C [salinomycin]	–	–	–	inhibited	reduced tumor volume; also recorded: inhibition of tumor growth	inhibited	significantly reduced	significantly reduced	–	significantly reduced	–	~10	0.2	360	20	~3	decrease in the CSC population	100	1000	positively correlated; also recorded: more sensitive
